Drawing on ChEMBL document CHEMBL3301361, “Experimental in vitro DMPK and physicochemical data on a set of publicly disclosed compounds”, this text covers logD, microsomal CLint and hepatocyte CLint for 36 compounds.

A value given as a limit tells only on which side of the number the result lay.

Data set [1] can be described thus: physchem. The note with it: octan-1-ol/water, pH 7.4, LogD7.4.
The nature of data set [2]: in vitro. The settings on record: human.
The nature of data set [3]: in vitro. The note with it: hepatocytes.

In turn, `CCOc1nc2cccc(C(=O)O)c2n1Cc1ccc(-c2ccccc2-c2nnn[nH]2)cc1` had a logD in data set [1] of 0.3. The same compound had a microsomal CLint in data set [2] (liver microsomes) of less than 3 µL/min/mg. The hepatocyte CLint in data set [3] is less than 3 µL/min/1e6 cells.
Turning to `O=C(Nc1ncc(F)s1)C(CC1CCOCC1)c1ccc(S(=O)(=O)C2CC2)cc1` (stereo not drawn), in data set [1], the logD worked out at 3.3. For the same compound, the microsomal CLint in data set [2] (liver microsomes) was 33.1 µL/min/mg. Also, the hepatocyte CLint in data set [3] came to 5.5 µL/min/1e6 cells.
The matching figures for `O=C1NC(=O)/C(=C/c2ccc3c(c2)OC(F)(F)O3)S1`: 2.8, 19.5 µL/min/mg and 4.17 µL/min/1e6 cells.
The matching figures for `Cc1c2c(=O)n(-c3ccccc3Cl)[nH]c2cc(=O)n1Cc1ccccn1`: 0.2, less than 3 µL/min/mg and less than 3 µL/min/1e6 cells.
In data set [1], `CNS(=O)(=O)Cc1ccc2[nH]cc(CCN(C)C)c2c1` registered a logD of -0.96. In data set [2] (liver microsomes), the microsomal CLint is less than 3 µL/min/mg. In data set [3], this compound registered a hepatocyte CLint of 8 µL/min/1e6 cells.
The matching figures for `CCc1c(C)nc(SCC(=O)Nc2nc(-c3ccc(OC)cc3)cs2)nc1O`: 3.78, 66.1 µL/min/mg and 66.1 µL/min/1e6 cells.
The matching figures for `c1ccc(Nc2[nH]nnc2-c2ccccc2)cc1`: 3.37, 119 µL/min/mg and 111 µL/min/1e6 cells.
In turn, `Cc1ccccc1NC(=O)CCS(=O)(=O)c1ccc(Br)s1` registered a logD in data set [1] of 2.7. For the same compound, the microsomal CLint in data set [2] (liver microsomes) stood at 46.8 µL/min/mg. In addition, in data set [3], the hepatocyte CLint is more than 150 µL/min/1e6 cells.
With `c1csc(Cn2nnnc2CN2CCN(c3nc4ccccc4s3)CC2)c1`, the logD in data set [1] turned out to be 3.65. In addition, in data set [2] (liver microsomes), the microsomal CLint is 99 µL/min/mg. In data set [3], the hepatocyte CLint was more than 150 µL/min/1e6 cells.
`O=C(c1csc2c1CCCC2)N1CCCCC1` registered a logD in data set [1] of 3.2. For the same compound, the microsomal CLint in data set [2] (microsomes) was found to be 117 µL/min/mg. Further, the hepatocyte CLint in data set [3] is more than 150 µL/min/1e6 cells.
With `Cc1nc2ncnn2c(O)c1CCOC(=O)c1c(F)cccc1F`, the logD in data set [1] worked out at 0.16. Moreover, the microsomal CLint in data set [2] (liver microsomes) was more than 150 µL/min/mg. This compound displayed a hepatocyte CLint in data set [3] of 64.3 µL/min/1e6 cells.
Compound `COc1ccc(C(=O)NCc2cn(-c3cc(C)nc4ccc(OC)cc34)nn2)cc1` registered a logD in data set [1] of 3.5. This compound also had a microsomal CLint in data set [2] (microsomes) of 64.6 µL/min/mg. Also, in data set [3], the hepatocyte CLint was 13.8 µL/min/1e6 cells.
On to `CN(CCNC[C@H](O)c1ccc(O)c2[nH]c(=O)sc12)C(=O)CCOCCc1ccccc1`, for which, in data set [1], the logD stood at 1.21. Moreover, the microsomal CLint in data set [2] (liver microsomes) is 35 µL/min/mg. This compound also returned a hepatocyte CLint in data set [3] of 43 µL/min/1e6 cells.
In turn, `CCOc1ccc(CCNCCCSCCNC[C@H](O)c2ccc(O)c3[nH]c(=O)sc23)cc1` came in with a logD in data set [1] of 0.41. In addition, the microsomal CLint in data set [2] (liver microsomes) is 75 µL/min/mg. For the same compound, the hepatocyte CLint in data set [3] worked out at 8 µL/min/1e6 cells.
`Cc1nc2ncnn2c(O)c1CCOC(=O)c1ccccc1F` returned a logD in data set [1] of 0.99. In data set [2] (liver microsomes), this compound gave a microsomal CLint of more than 150 µL/min/mg. For the same compound, in data set [3], the hepatocyte CLint was found to be 129 µL/min/1e6 cells.
`CCC(CC)NC(=O)c1cnn(-c2ccccc2Cl)c1NS(=O)(=O)c1ccc(C)cc1` returned a log distribution coefficient (logD) in data set [1] of 0.65. The same compound came in with a microsomal CLint in data set [2] (liver microsomes) of 72 µL/min/mg. The hepatocyte CLint in data set [3] turned out to be 56 µL/min/1e6 cells.
On to `CCC(CC)NC(=O)c1cnn(C)c1NS(=O)(=O)c1ccc(C)cc1`, for which, in data set [1], the logD is 0.36. In data set [2] (liver microsomes), this compound had a microsomal CLint of 13 µL/min/mg. Further, the hepatocyte CLint in data set [3] turned out to be 27 µL/min/1e6 cells.
The compound `CCC(CC)NC(=O)c1cnn(-c2ccccc2)c1NS(=O)(=O)c1ccc(-c2cnco2)cc1` returned a logD in data set [1] of 0.8. Also, in data set [2] (liver microsomes), the microsomal CLint turned out to be 27 µL/min/mg. For the same compound, the hepatocyte CLint in data set [3] worked out at 52 µL/min/1e6 cells.
Regarding `Cc1nn(-c2ccc(F)cc2)c(NS(=O)(=O)c2cccnc2)c1C(=O)N[C@@H](C)C(C)(C)C`, in data set [1], the logD was found to be 0.4. Also, in data set [2] (liver microsomes), the microsomal CLint was less than 3 µL/min/mg. For the same compound, the hepatocyte CLint in data set [3] amounted to 12 µL/min/1e6 cells.
`Cc1cccc2c(CCNCc3cccc(CCNC[C@H](O)c4ccc(O)c5[nH]c(=O)sc45)c3)c[nH]c12` returned a logD in data set [1] of 1.13. Also, the microsomal CLint in data set [2] (liver microsomes) came to 16 µL/min/mg. This compound yielded a hepatocyte CLint in data set [3] of 24 µL/min/1e6 cells.
Taken in the same sequence, the figures for `O=c1[nH]c2c(O)ccc([C@@H](O)CNCCc3cccc(CNCCCc4ccccc4)c3)c2s1` were 1.11, 9 µL/min/mg and 19 µL/min/1e6 cells.
Take `COc1ccc(CNCc2cccc(CCNC[C@H](O)c3ccc(O)c4[nH]c(=O)sc34)c2)cc1`: the logD in data set [1] was 0.86. Moreover, the microsomal CLint in data set [2] (liver microsomes) was 62 µL/min/mg. Besides, the hepatocyte CLint in data set [3] stood at 13 µL/min/1e6 cells.
Taken in the same sequence, the figures for `CC(=O)c1ncccc1NC(=O)[C@H]1CC[C@H](N2C(=O)[C@@H]3[C@@H]4CC[C@@H](C4)[C@@H]3C2=O)CC1` were 3.01, 16.6 µL/min/mg and more than 150 µL/min/1e6 cells.
The matching figures for `O=C(Nc1cccc(-c2nnn[nH]2)c1)c1cc(C(F)(F)F)cc2[nH]cnc12`: 1.1, 4.47 µL/min/mg and 17.4 µL/min/1e6 cells.
`COc1ccc2nc(C)cc(OCC(=O)Nc3ccccc3OC)c2c1` gave a logD in data set [1] of 3.9. In data set [2] (microsomes), this compound came in with a microsomal CLint of 138 µL/min/mg. The compound further had a hepatocyte CLint in data set [3] of more than 150 µL/min/1e6 cells.
Take `COc1ccc2nc(C)cc(OCC(=O)NCc3ccccc3)c2c1`: the logD in data set [1] was found to be 3.2. Besides, the microsomal CLint in data set [2] (liver microsomes) was more than 150 µL/min/mg. The compound also displayed a hepatocyte CLint in data set [3] of 120 µL/min/1e6 cells.
As for `CNC(=O)c1nc(-c2ccc(Cl)c(S(=O)(=O)Nc3cccc(F)c3F)c2)cnc1N`, the logD in data set [1] was found to be 2.8. This compound also gave a microsomal CLint in data set [2] (liver microsomes) of 51.3 µL/min/mg. The compound further yielded a hepatocyte CLint in data set [3] of 19.9 µL/min/1e6 cells.
The matching figures for `CCn1c(C)c(C(=O)O)c(-c2cccc(N3CCN(c4ccc(NS(=O)(=O)c5ccc(N[C@H](CCN6CCC(O)CC6)CSc6ccccc6)c(S(=O)(=O)C(F)(F)F)c5)cc4)CC3)c2)c1-c1ccc(Cl)cc1`: 4.2, 15.1 µL/min/mg and 17.4 µL/min/1e6 cells.
Taken in the same sequence, the figures for `Cc1cc2cc(C)c3nnc(SCC(=O)N4CCN(C(=O)c5ccco5)CC4)n3c2cc1C` were 2.8, more than 150 µL/min/mg and 57.5 µL/min/1e6 cells.
Consider `O=C(O)COc1ccc(C(=O)c2cccs2)c(Cl)c1Cl`, for which the logD in data set [1] is -0.84. Further, the microsomal CLint in data set [2] (microsomes) worked out at 82 µL/min/mg. In data set [3], this compound showed a hepatocyte CLint of 61 µL/min/1e6 cells.
The compound `O=C(O)[C@H](Cc1ccccc1)N1CCC(CN2CCC(Oc3ccc(CO)c(Cl)c3)CC2)CC1` showed a logD in data set [1] of 0.8. For the same compound, the microsomal CLint in data set [2] (liver microsomes) is less than 3 µL/min/mg. Further, in data set [3], the hepatocyte CLint came to 28 µL/min/1e6 cells.
Taken in the same sequence, the figures for `COc1ccc(Cc2c(N)n[nH]c2N)cc1` were 0.2, 5.37 µL/min/mg and 3.63 µL/min/1e6 cells.
Taken in the same sequence, the figures for `COc1cc2c(Nc3ccc(F)c(Cl)c3)c(C(N)=O)cnc2cc1OCCN(C)CCO` were 3.2, 27.5 µL/min/mg and 12.6 µL/min/1e6 cells.
In data set [1], `O=C(Nc1cccc(CCO)c1)c1cc2cc(Cl)ccc2[nH]1` yielded a logD of 3.83. This compound also yielded a microsomal CLint in data set [2] (liver microsomes) of 10 µL/min/mg. In data set [3], this compound yielded a hepatocyte CLint of more than 150 µL/min/1e6 cells.
In data set [1], `O=C(NCC12CC3CC(CC(C3)C1)C2)c1c(Cl)ccc2nc(N3CCC[C@H](NCCc4nnn[nH]4)C3)ccc12` had a logD of 3.08. The intrinsic metabolic clearance (microsomal CLint) in data set [2] (liver microsomes) was 15 µL/min/mg. Also, the hepatocyte CLint in data set [3] is 13 µL/min/1e6 cells.
`O=C(NCC12CC3CC(CC(C3)C1)C2)c1ccnc(NCC2CCNCC2)c1Cl`: the logD in data set [1] is 0.6. This compound also showed a microsomal CLint in data set [2] (microsomes) of 68 µL/min/mg. In data set [3], the hepatocyte CLint stood at 4 µL/min/1e6 cells.

As usually defined, the logD is lipophilicity at a set pH, counting ionised and neutral species. A high value points to a more lipophilic compound. As usually defined, the microsomal CLint is the rate of metabolic loss divided by the concentration. High values mean faster metabolism, low ones greater metabolic stability. In general, hepatocyte CLint refers to a measure of how fast metabolising enzymes remove a compound, apart from limits set by blood flow. Read a high hepatocyte CLint as rapid turnover.
